Data as given in patent US10632106B2, “Methods of cancer treatment with 2-(1′H-Indole-3′-carbonyl)-thiazole-4-carboxylic acid methyl ester” (Ariagen, Inc., priority 2009, dated 2020).

Test: Effects of oral water administration on ITE dosed mice
Assay type: in vivo
Set-up: key to feces appearance: Moderate; Dry
Experimental: Oral injection of water was initiated at the same day i.p. administration of ITE was started. Daily oral gavage at 10 or 20 ml/kg was performed immediately following daily i.p. injection of ITE or DMSO continuously for the entire duration of the study. Both oral and i.p. injection were accidentally skipped at day 14 due to a mistake of the experimenter(s) and all of the other dosing were executed normally. Bodyweights (individual), food consumed (in group), feces weights (in group), and feces appearance (in group) were recorded every two days. Death of animal(s) and approximate cause of death etc. were also recorded.

[1] = ITE-L 200 mg/kg i.p. + Water-0, day 4
[2] = ITE-L 200 mg/kg i.p. + Water-0, day 6
[3] = ITE-L 200 mg/kg i.p. + Water-0, day 8
[4] = ITE-L 200 mg/kg i.p. + Water-0, day 10
[5] = ITE-L 200 mg/kg i.p. + Water-0, day 12
[6] = ITE-L 200 mg/kg i.p. + Water-0, day 14
[7] = ITE-L 200 mg/kg i.p. + Water-0, day 18 (line r16)
[8] = ITE-L 200 mg/kg i.p. + Water-0, day 18 (line r17)
[9] = ITE-L 200 mg/kg i.p. + Water-0, day 20
[10] = ITE-L 200 mg/kg i.p. + Water-0, day 22
[11] = ITE-L 200 mg/kg i.p. + Water-0, day 24
[12] = ITE-L 200 mg/kg i.p. + Water-0, day 26
[13] = ITE-L 200 mg/kg i.p. + Water-0, day 28
[14] = ITE-L 200 mg/kg i.p. + Water-0, day 30
[15] = ITE-L 200 mg/kg i.p. + Water-0, day 32
[16] = ITE-L 200 mg/kg i.p. + Water-0, day 34
[17] = ITE-L 200 mg/kg i.p. + Water-0, day 36
[18] = ITE-L 200 mg/kg i.p. + Water-H 20 ml/kg, day 4
[19] = ITE-L 200 mg/kg i.p. + Water-H 20 ml/kg, day 6
[20] = ITE-L 200 mg/kg i.p. + Water-H 20 ml/kg, day 8
[21] = ITE-L 200 mg/kg i.p. + Water-H 20 ml/kg, day 10
[22] = ITE-L 200 mg/kg i.p. + Water-H 20 ml/kg, day 12
[23] = ITE-L 200 mg/kg i.p. + Water-H 20 ml/kg, day 14
[24] = ITE-L 200 mg/kg i.p. + Water-H 20 ml/kg, day 18 (line r16)
[25] = ITE-L 200 mg/kg i.p. + Water-H 20 ml/kg, day 18 (line r17)
[26] = ITE-L 200 mg/kg i.p. + Water-H 20 ml/kg, day 20
[27] = ITE-L 200 mg/kg i.p. + Water-H 20 ml/kg, day 22
[28] = ITE-L 200 mg/kg i.p. + Water-H 20 ml/kg, day 24
[29] = ITE-L 200 mg/kg i.p. + Water-H 20 ml/kg, day 26
[30] = ITE-L 200 mg/kg i.p. + Water-H 20 ml/kg, day 28
[31] = ITE-L 200 mg/kg i.p. + Water-H 20 ml/kg, day 30
[32] = ITE-L 200 mg/kg i.p. + Water-H 20 ml/kg, day 32
[33] = ITE-L 200 mg/kg i.p. + Water-H 20 ml/kg, day 34
[34] = ITE-L 200 mg/kg i.p. + Water-H 20 ml/kg, day 36
[35] = ITE-L 200 mg/kg i.p. + Water-L 10 ml/kg, day 4
[36] = ITE-L 200 mg/kg i.p. + Water-L 10 ml/kg, day 6
[37] = ITE-L 200 mg/kg i.p. + Water-L 10 ml/kg, day 8
[38] = ITE-L 200 mg/kg i.p. + Water-L 10 ml/kg, day 10
[39] = ITE-L 200 mg/kg i.p. + Water-L 10 ml/kg, day 12
[40] = ITE-L 200 mg/kg i.p. + Water-L 10 ml/kg, day 14
[41] = ITE-L 200 mg/kg i.p. + Water-L 10 ml/kg, day 18 (line r16)
[42] = ITE-L 200 mg/kg i.p. + Water-L 10 ml/kg, day 18 (line r17)
[43] = ITE-L 200 mg/kg i.p. + Water-L 10 ml/kg, day 20
[44] = ITE-L 200 mg/kg i.p. + Water-L 10 ml/kg, day 22
[45] = ITE-L 200 mg/kg i.p. + Water-L 10 ml/kg, day 24
[46] = ITE-L 200 mg/kg i.p. + Water-L 10 ml/kg, day 26
[47] = ITE-L 200 mg/kg i.p. + Water-L 10 ml/kg, day 28
[48] = ITE-L 200 mg/kg i.p. + Water-L 10 ml/kg, day 30
[49] = ITE-L 200 mg/kg i.p. + Water-L 10 ml/kg, day 32
[50] = ITE-L 200 mg/kg i.p. + Water-L 10 ml/kg, day 34
[51] = ITE-L 200 mg/kg i.p. + Water-L 10 ml/kg, day 36

With `COC(=O)c1csc(C(=O)c2c[nH]c3ccccc23)n1` [ITE, 2-(1′H-indole-3′-carbonyl)-thiazole-4-carboxylic acid methyl ester] the feces appearance [1] was “M”, the “number of mice that died” value [1] was 0 and the feces appearance [2] was “M”. The “number of mice that died” value [2] was 0, the feces appearance [3] was “D” and the “number of mice that died” value [3] was 0. For the same compound, the feces appearance [4] was “D”, the “number of mice that died” value [4] was 0 and the feces appearance [5] was “D”. The “number of mice that died” value [5] was 0, the feces appearance [6] was “D” and the “number of mice that died” value [6] was 0. For the same compound, the feces appearance [7] was “D”, the “number of mice that died” value [7] was 0 and the feces appearance [8] was “D”. The “number of mice that died” value [8] was 0, the feces appearance [9] was “D” and the “number of mice that died” value [9] was 0. For the same compound, the feces appearance [10] was “D”, the “number of mice that died” value [10] was 0 and the feces appearance [11] was “D”. For the same compound, the “number of mice that died” value [11] was 0, the feces appearance [12] was “D” and the “number of mice that died” value [12] was 0. For the same compound, the feces appearance [13] was “D”, the “number of mice that died” value [13] was 1 and the feces appearance [14] was “D”. For the same compound, the “number of mice that died” value [14] was 1, the feces appearance [15] was “D” and the “number of mice that died” value [15] was 1. The feces appearance [16] was “D”, the “number of mice that died” value [16] was 1 and the feces appearance [17] was “D”. For the same compound, the “number of mice that died” value [17] was 1, the feces appearance [18] was “M” and the “number of mice that died” value [18] was 0. For the same compound, the feces appearance [19] was “M”, the “number of mice that died” value [19] was 0 and the feces appearance [20] was “D”. The “number of mice that died” value [20] was 0, the feces appearance [21] was “D” and the “number of mice that died” value [21] was 0. The feces appearance [22] was “D”, the “number of mice that died” value [22] was 0 and the feces appearance [23] was “D”. The “number of mice that died” value [23] was 0, the feces appearance [24] was “D” and the “number of mice that died” value [24] was 0. For the same compound, the feces appearance [25] was “D”, the “number of mice that died” value [25] was 0 and the feces appearance [26] was “D”. For the same compound, the “number of mice that died” value [26] was 0, the feces appearance [27] was “D” and the “number of mice that died” value [27] was 0. The feces appearance [28] was “D”, the “number of mice that died” value [28] was 0 and the feces appearance [29] was “D”. For the same compound, the “number of mice that died” value [29] was 0, the feces appearance [30] was “M” and the “number of mice that died” value [30] was 0. The feces appearance [31] was “M”, the “number of mice that died” value [31] was 0 and the feces appearance [32] was “M”. The “number of mice that died” value [32] was 0, the feces appearance [33] was “M” and the “number of mice that died” value [33] was 0. For the same compound, the feces appearance [34] was “M”, the “number of mice that died” value [34] was 0 and the feces appearance [35] was “M”. For the same compound, the “number of mice that died” value [35] was 0, the feces appearance [36] was “M” and the “number of mice that died” value [36] was 0. The feces appearance [37] was “D”, the “number of mice that died” value [37] was 0 and the feces appearance [38] was “D”. For the same compound, the “number of mice that died” value [38] was 0, the feces appearance [39] was “D” and the “number of mice that died” value [39] was 0. The feces appearance [40] was “D”, the “number of mice that died” value [40] was 0 and the feces appearance [41] was “D”. The “number of mice that died” value [41] was 0, the feces appearance [42] was “D” and the “number of mice that died” value [42] was 0. The feces appearance [43] was “D”, the “number of mice that died” value [43] was 0 and the feces appearance [44] was “D”. The “number of mice that died” value [44] was 0, the feces appearance [45] was “D” and the “number of mice that died” value [45] was 0. The feces appearance [46] was “D”, the “number of mice that died” value [46] was 0 and the feces appearance [47] was “M”. The “number of mice that died” value [47] was 0, the feces appearance [48] was “M” and the “number of mice that died” value [48] was 0. The feces appearance [49] was “M”, the “number of mice that died” value [49] was 0 and the feces appearance [50] was “M”. For the same compound, the “number of mice that died” value [50] was 0, the feces appearance [51] was “M” and the “number of mice that died” value [51] was 0.
